Assay results taken from patent US20130331415A1, “COMPOSITIONS COMPRISING WNT INHIBITORS FOR TREATING CANCER” (priority 2010, published 2013).

Assays:
[1] = tested on: PBL; experiment: Cell viability by DiOC6 staining, flow cytometry: PBL of healthy individuals; type: cell-based, human
Experimental: (§1) After addition of 5 μl PI-solution (100 μg/ml) the cells were analyzed by FACS.
(§2) Experiments were performed as reported recently.

[2] = tested on: RPMI 8226 myeloma cells; experiment: Cell viability by DiOC6 staining, flow cytometry: RPMI 8226; type: cell-based, human; settings: three days; EA or CIC 30 μM; thalidomide 20 μM; lenalidomide 80 μM
Experimental: (§3) The lymphoma cell lines LAM-53, SU-DHL-4, Daudi and Raji, as well as the myeloma cell lines OPM-2, RPMI-8226 and U-266 (all obtained from DSMZ, Collection of Microorganisms and Cell Culture, Braunschweig, Germany) were cultured in RPMI-1640 Medium consisting of 10% heat-inactivated fetal calf serum (FCS, Invitrogen, Karlsruhe, Germany), 2.5% 1 M HEPES, and 1× penicillin/streptomycin (all from PAA Laboratories GmbH, Cölbe, Germany). Cells were cultured at a density of 3.3×10^5 cells ml^−1 andincubated at 37° C. with 5% CO2 and 95% humidity.
as §1, §2

[3] = tested on: PBMC; experiment: Cell viability by DiOC6 staining, flow cytometry: PBMC of healthy individuals; type: cell-based, human
Experimental: as §1
PBMCs were isolated from blood of healthy donors by Ficoll-Hypaque density gradient centrifugation. Blood from buffy coats was mixed 1:2 with PBS/1% BSA (both PAA, Cölbe, Germany) and used for a ficoll gradient (LymphoPrep, PAA, Cölbe, Germany). After the centrifugation at 800 g for 30 minutes, the leukocyte layer was removed and transferred to new tubes.
as §2

[4] = tested on: OPM-2 myeloma cells; experiment: Cell viability by DiOC6 staining, flow cytometry: OPM-2; type: cell-based, human; settings: for viability of OPM-2 cells, single drug or combination: three days, EA or CIC 30 μM, thalidomide 40 μM, lenalidomide 12 μM
Experimental: as §3, §1, §2

[5] = tested on: lymphoma cell lines (OCI-Ly8 LAM53, SU-DHL-4 and Raji); experiment: Viability of lymphoma cell lines in vitro; type: cell-based, human
Experimental: as §1, §2

[6] = tested on: U266 myeloma cells; experiment: Cell viability by DiOC6 staining, flow cytometry: U266; type: cell-based, human; settings: three days; EA or CIC 30 μM; thalidomide 160 μM
Experimental: as §3, §1, §2

[7] = tested on: MPC11 myeloma cells; type: in vivo; settings: for animals in which solid tumor nodules formed: gavage 450 μg per animal daily; for overall survival compared to control group: oral 450 μg/day, 750 μg lenalidomide/day in combination
Experimental: Mice were treated orally with 450 μg/day EA and 750 μg lenalidomide/day, respectively. Overall survival and tumor growth were measured. Tumor volume was calculated as follows: volume=length×width^2×0.52.
Mice were treated orally with 450 μg/day CIC and 750 μg lenalidomide/day, respectively. Overall survival and tumor growth were measured. Tumor volume was calculated as follows: volume=length×width^2×0.52.
Mice were treated orally with 450 μg/day PO. Overall survival and tumor growth were measured. Tumor volume was calculated as follows: volume=length×width^2×0.52.

[8] = tested on: primary myeloma cells; experiment: Viability of primary myeloma cells from bone marrow of patients; type: cell-based, human; settings: three days; preliminary data
Experimental: Bone marrow samples from patients with myeloma were taken after informed consent, single cell suspensions generated and cells ficolled. Cells were incubated with or without EA for three days and measured for viability.
Results represent data from two separate experiments. Data are shown as mean.
Bone marrow samples from patients with myeloma were taken after informed consent, single cell suspensions generated and cells ficolled. Cells were incubated with or without CIC for three days and measured for viability.
Bone marrow samples from patients with myeloma were taken after informed consent, single cell suspensions generated and cells ficolled. Cells were incubated with or without GF for three days and measured for viability.

[9] = tested on: primary CLL cells; settings: cited from earlier work
[10] = tested on: Wnt/beta catenin signaling; settings: 960 compounds screened; cited from earlier work
[11] = cited from earlier work
[12] = tested on: OCI-Ly8 LAM53 lymphoma cells; experiment: Cell viability by DiOC6 staining, flow cytometry: OCI-Ly8 LAM53; type: cell-based; settings: Homo sapiens, EA 30 μM, after 72 h, read-out: relative viability, LAM-53
Experimental: as §3, §1, §2

[13] = tested on: SU-DHL-4 lymphoma cells; experiment: Cell viability by DiOC6 staining, flow cytometry: SU-DHL-4; type: cell-based; settings: Homo sapiens, EA 30 μM, after 72 h, read-out: relative viability, SU-DHL-4
Experimental: as §3, §1, §2

[14] = tested on: Raji lymphoma cells; experiment: Cell viability by DiOC6 staining, flow cytometry: Raji; type: cell-based, human; settings: for viability of Raji cells, single drug or combination: EA or CIC 30 μM, data not shown
Experimental: as §3, §1, §2

[15] = tested on: Daudi lymphoma cells; experiment: Cell viability by DiOC6 staining, flow cytometry: Daudi; type: cell-based, human; settings: EA or CIC 30 μM; data not shown
Experimental: as §3, §1
The lymphoma cell lines LAM-53, SU-DHL-4, Daudi and Raji, as well as the myeloma cell lines OPM-2, RPMI-8226 and U-266 (all obtained from DSMZ, Collection of Microorganisms and Cell Culture, Braunschweig, Germany) were cultured in RPMI-1640 Medium consisting of 10% heat-inactivated fetal calf serum (FCS, Invitrogen, Karlsruhe, Germany), 2.5% 1 M HEPES, and 1× penicillin/streptomycin (all from PAA Laboratories GmbH, Cölbe, Germany). Cells were cultured at a density of 3.3×10^5 cells ml^−1 and incubated at 37° C. with 5% CO2 and 95% humidity.
as §2

[16] = tested on: myeloma cells (OPM-2, U266 and RPMI 8226); experiment: Viability of myeloma cell lines, mean IC50 over OPM-2, U266 and RPMI 8226; type: cell-based, human
Experimental: A mean IC50 value in myeloma cells was determined using the mean of the IC50 results determined in OPM-2, U266 and RPMI 8226 cells.

## Nc1cccc2c1CN(C1CCC(=O)NC1=O)C2=O (racemic) [lenalidomide, (RS)-3-(4-amino-1-oxo-3H-isoindol-2-yl)piperidine-2,6-dione]
[1]
  effect on normal PBL: marginal
[2]
  viability of RPMI-8226 cells, single drug or combination: significant decrease in viability
[3]
  effect on normal PBMC: marginal
[4]
  viability of OPM-2 cells, single drug or combination: significant decrease in viability
[5]
  viability of lymphoma cell lines in vitro: no effect

## O=C1CCC(N2C(=O)c3ccccc3C2=O)C(=O)N1 (racemic) [thalidomide, (RS)-2-(2,6-dioxopiperidin-3-yl)-1H-isoindole-1,3(2H)-dione]
[6]
  viability of U-266 cells, single drug or combination: significant decrease in viability
[1]
  effect on normal PBL: no effect
[2]
  viability of RPMI-8226 cells, single drug or combination: significant decrease in viability
[3]
  effect on normal PBMC: no effect
[4]
  viability of OPM-2 cells, single drug or combination: significant decrease in viability
[5]
  viability of lymphoma cell lines in vitro: no effect

## Cc1cc(C2CCCCC2)n(O)c(=O)c1 [CIC, ciclopirox olamine]
[7]; oral 450 μg/day CIC, 750 μg lenalidomide/day
  tumor growth compared to control mice: significantly reduced
[8]
  growth of primary myeloma cells from bone marrow of patients: inhibits the growth
[1]
  effect on normal PBL: marginal
[9]
  cell death in primary CLL cells: selectively induced cell death
[3]
  effect on normal PBMC: marginal
[10]
  result of TOPflash reporter screen: Wnt/beta catenin inhibitors
[5]
  viability of lymphoma cell lines in vitro: significantly (p<0.05) decreased the viability

## Cc1cc(C2CCCCC2)n(O)c(=O)c1 [Ciclopirox, 6-cyclohexyl-1-hydroxy-4-methyl-1,2-dihydropyridin-2-one]
[11]
  solubility in methanol: soluble

## C=C(CC)C(=O)c1ccc(OCC(=O)O)c(Cl)c1Cl [EA, 2-[2,3-dichloro-4-(2-methylidenebutanoyl)phenoxy]acetic acid]
[7]; oral 450 μg/day EA, 750 μg lenalidomide/day, p<0.001
  tumor growth compared to mice treated with lenalidomide alone: significantly reduced
[12]
  viability at 30 µM: 91%
[13]
  viability at 30 µM: 97.6%
[8]
  growth of primary myeloma cells from bone marrow of patients: inhibits the growth
[14]; Homo sapiens, Raji, EA 30 μM, after 72 h, read-out: relative viability, Raji
  viability at 30 µM: 78.9%
[9]
  cell death in primary CLL cells: selectively induced cell death
[11]
  solubility in water: slightly solube
[11]; e.g. alcohols, chloroform, and benzene
  solubility in most organic solvents: soluble
[10]
  result of TOPflash reporter screen: Wnt/beta catenin inhibitors
[5]
  viability of lymphoma cell lines in vitro: significantly (p<0.05) decreased the viability

## CC(C)C[C@H](NC(=O)[C@H](Cc1ccccc1)NC(=O)c1cnccn1)B(O)O [bortezomib]
[4]
  viability of OPM-2 cells, single drug or combination: significant decrease in viability

## COc1cccc2c1C(=O)c1c(O)c3c(c(O)c1C2=O)C[C@@](O)(C(=O)CO)C[C@@H]3O[C@H]1C[C@H](N)[C@H](O)[C@H](C)O1 [doxorubicin]
[15]
  viability of Daudi cells, single drug or combination: significant decrease in viability
[14]
  viability of Raji cells, single drug or combination: significant decrease in viability

## COC1=CC(=O)C[C@@H](C)[C@]12Oc1c(Cl)c(OC)cc(OC)c1C2=O [griseofulvin, (2S,6′R)-7-chloro-2′,4,6-trimethoxy-6′-methyl-3H,4′H-spiro[1-benzofuran-2,1′-cyclohex[2]ene]-3,4′-dione]
[7]
  animals in which solid tumor nodules formed: 5 of 6
  overall survival compared to control group: significantly (p<0.05) longer
[16]
  viability of myeloma cell lines in vitro: significantly decreased the viability
[8]
  growth of primary myeloma cells from bone marrow of patients: inhibits the growth
[5]
  viability of lymphoma cell lines in vitro: significantly (p<0.05) decreased the viability

## Cc1cc(CC(C)CC(C)(C)C)n(O)c(=O)c1 (stereo not shown) [piroctone olamine]
[7]
  animals in which solid tumor nodules formed: 5 of 6
  overall survival compared to control group: significantly (p<0.05) longer
[16]
  viability of myeloma cell lines in vitro: significantly decreased the viability
[8]
  growth of primary myeloma cells from bone marrow of patients: inhibits the growth
[1]
  effect on normal PBL: marginal
[4]; 0.1 uM, three days (FIG. 12)
  mode of cytotoxic activity: induction of apoptosis
[5]
  viability of lymphoma cell lines in vitro: significantly (p<0.05) decreased the viability

## rituximab
[15]
  viability of Daudi cells, single drug or combination: significantly decreased
[14]
  viability of Raji cells, single drug or combination: significantly decreased
